According to the kinase profiling compilation of Christmann-Franck et al. (2016):

Experiments:
Test in all cases: radiometric filter-binding kinase assay, Kinase HotSpot
Settings in all cases: compound 0.5 µM; ATP 10 µM
MAPK14 (human) = MAPK14 (human) (UniProt Q16539)
BTK (human) = BTK (human) (UniProt Q06187)
TGFBR1 (human) = TGFBR1 (human) (UniProt P36897)
AKT1 (human) = AKT1 (human) (UniProt P31749)
ACVR1B (human) = ACVR1B (human) (UniProt P36896)
CSNK2A1 (human) = CSNK2A1 (human) (UniProt P68400)
MARK4 (human) = MARK4 (human) (UniProt Q96L34)
Chain of MARK4 (human) (Q96L34 whole entry, looked up): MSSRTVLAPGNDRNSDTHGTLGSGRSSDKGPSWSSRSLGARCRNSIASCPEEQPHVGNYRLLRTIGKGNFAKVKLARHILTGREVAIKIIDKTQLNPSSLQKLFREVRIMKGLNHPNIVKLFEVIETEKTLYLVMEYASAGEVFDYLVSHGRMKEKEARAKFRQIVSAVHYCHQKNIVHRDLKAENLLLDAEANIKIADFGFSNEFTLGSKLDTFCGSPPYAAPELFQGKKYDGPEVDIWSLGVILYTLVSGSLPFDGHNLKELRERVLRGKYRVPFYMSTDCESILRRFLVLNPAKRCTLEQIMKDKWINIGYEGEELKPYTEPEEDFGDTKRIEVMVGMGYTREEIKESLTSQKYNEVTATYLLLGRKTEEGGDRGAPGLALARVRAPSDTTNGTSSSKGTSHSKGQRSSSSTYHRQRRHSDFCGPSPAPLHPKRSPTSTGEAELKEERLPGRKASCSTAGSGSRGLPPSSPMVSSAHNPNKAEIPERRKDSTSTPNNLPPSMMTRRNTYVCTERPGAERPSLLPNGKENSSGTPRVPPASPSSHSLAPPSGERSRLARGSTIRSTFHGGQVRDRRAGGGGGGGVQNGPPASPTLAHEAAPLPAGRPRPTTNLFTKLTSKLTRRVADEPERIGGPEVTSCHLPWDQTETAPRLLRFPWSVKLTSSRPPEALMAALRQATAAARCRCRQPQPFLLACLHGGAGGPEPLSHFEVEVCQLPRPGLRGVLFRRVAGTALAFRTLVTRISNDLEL

PRKACA (human) = PRKACA (human) (UniProt P17612)
RAF1 (human) = RAF1 (human) (UniProt P04049)
MARK3 (human) = MARK3 (human) (UniProt P27448)
EPHB2 (human) = EPHB2 (human) (UniProt P29323)
FGFR3 (human) = FGFR3 (human) (UniProt P22607)
PTK2B (human) = PTK2B (human) (UniProt Q14289)
CSNK1G3 (human) = CSNK1G3 (human) (UniProt Q9Y6M4)
SLK (human) = SLK (human) (UniProt Q9H2G2)
TSSK2 (human) = TSSK2 (human) (UniProt Q96PF2)
GSK3A (human) = GSK3A (human) (UniProt P49840)
[1] = molecular target: TYK2 JH1 catalytic (human) (UniProt P29597)
PAK6 (human) = PAK6 (human) (UniProt Q9NQU5)
AXL (human) = AXL (human) (UniProt P30530)
ROCK2 (human) = ROCK2 (human) (UniProt O75116)
NEK4 (human) = NEK4 (human) (UniProt P51957)
SYK (human) = SYK (human) (UniProt P43405)
[2] = molecular target: JAK1 JH1 catalytic (human) (UniProt P23458)
MAPK12 (human) = MAPK12 (human) (UniProt P53778)
TEC (human) = TEC (human) (UniProt P42680)
MYLK (human) = MYLK (human) (UniProt Q15746)
Chain of MYLK (human) (Q15746 whole entry, looked up): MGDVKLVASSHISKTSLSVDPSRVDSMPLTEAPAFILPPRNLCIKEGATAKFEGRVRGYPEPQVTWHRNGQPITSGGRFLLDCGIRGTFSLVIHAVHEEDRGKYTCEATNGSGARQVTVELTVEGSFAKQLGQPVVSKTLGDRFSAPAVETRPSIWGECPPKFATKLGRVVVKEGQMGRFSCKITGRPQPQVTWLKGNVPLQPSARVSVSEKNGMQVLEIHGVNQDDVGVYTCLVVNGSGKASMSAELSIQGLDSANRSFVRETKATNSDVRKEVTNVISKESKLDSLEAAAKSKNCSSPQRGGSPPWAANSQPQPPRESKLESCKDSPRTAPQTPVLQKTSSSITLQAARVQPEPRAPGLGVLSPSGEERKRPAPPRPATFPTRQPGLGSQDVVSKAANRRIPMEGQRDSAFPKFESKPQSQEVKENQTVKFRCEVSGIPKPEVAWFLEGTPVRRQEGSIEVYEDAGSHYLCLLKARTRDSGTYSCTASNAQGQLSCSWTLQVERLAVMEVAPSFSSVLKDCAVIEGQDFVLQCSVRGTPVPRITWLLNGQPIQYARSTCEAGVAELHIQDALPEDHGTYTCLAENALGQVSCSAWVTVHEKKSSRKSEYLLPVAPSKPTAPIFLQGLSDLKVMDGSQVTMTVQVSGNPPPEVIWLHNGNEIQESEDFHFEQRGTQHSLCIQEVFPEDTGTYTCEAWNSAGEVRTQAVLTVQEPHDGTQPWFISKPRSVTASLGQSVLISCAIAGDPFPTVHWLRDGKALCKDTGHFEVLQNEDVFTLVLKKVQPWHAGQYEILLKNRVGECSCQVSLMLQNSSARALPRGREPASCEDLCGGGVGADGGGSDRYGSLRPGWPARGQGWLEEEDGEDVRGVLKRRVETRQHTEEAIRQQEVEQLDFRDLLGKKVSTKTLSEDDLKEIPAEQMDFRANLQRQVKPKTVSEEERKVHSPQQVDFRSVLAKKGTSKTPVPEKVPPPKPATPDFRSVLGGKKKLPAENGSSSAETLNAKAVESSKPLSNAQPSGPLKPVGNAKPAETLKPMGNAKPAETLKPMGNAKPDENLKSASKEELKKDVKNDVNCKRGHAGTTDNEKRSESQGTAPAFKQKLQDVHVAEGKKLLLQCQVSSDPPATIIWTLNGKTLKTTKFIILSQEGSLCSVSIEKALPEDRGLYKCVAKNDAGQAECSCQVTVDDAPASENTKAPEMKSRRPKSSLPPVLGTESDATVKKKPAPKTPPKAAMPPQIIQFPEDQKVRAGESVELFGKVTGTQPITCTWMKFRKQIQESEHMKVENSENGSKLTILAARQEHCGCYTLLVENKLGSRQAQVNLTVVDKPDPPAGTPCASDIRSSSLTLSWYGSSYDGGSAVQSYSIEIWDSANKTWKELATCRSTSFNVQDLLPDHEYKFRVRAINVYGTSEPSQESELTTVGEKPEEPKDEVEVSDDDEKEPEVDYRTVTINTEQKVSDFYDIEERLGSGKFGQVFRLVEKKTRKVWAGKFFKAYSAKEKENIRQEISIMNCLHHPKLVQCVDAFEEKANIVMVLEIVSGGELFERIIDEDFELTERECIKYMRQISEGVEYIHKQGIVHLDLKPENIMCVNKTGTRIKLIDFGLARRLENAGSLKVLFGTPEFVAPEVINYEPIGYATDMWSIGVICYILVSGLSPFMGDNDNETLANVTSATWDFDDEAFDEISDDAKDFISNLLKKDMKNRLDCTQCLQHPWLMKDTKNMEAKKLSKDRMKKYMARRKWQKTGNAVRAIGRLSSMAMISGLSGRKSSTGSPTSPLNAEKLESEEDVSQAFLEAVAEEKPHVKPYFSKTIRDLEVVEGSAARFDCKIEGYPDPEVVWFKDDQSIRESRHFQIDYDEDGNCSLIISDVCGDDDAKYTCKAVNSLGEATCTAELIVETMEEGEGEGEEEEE

PLK2 (human) = PLK2 (human) (UniProt Q9NYY3)
STK17A (human) = STK17A (human) (UniProt Q9UEE5)
AURKA (human) = AURKA (human) (UniProt O14965)
CDC42BPA (human) = CDC42BPA (human) (UniProt Q5VT25)
Chain of CDC42BPA (human) (Q5VT25 whole entry, looked up): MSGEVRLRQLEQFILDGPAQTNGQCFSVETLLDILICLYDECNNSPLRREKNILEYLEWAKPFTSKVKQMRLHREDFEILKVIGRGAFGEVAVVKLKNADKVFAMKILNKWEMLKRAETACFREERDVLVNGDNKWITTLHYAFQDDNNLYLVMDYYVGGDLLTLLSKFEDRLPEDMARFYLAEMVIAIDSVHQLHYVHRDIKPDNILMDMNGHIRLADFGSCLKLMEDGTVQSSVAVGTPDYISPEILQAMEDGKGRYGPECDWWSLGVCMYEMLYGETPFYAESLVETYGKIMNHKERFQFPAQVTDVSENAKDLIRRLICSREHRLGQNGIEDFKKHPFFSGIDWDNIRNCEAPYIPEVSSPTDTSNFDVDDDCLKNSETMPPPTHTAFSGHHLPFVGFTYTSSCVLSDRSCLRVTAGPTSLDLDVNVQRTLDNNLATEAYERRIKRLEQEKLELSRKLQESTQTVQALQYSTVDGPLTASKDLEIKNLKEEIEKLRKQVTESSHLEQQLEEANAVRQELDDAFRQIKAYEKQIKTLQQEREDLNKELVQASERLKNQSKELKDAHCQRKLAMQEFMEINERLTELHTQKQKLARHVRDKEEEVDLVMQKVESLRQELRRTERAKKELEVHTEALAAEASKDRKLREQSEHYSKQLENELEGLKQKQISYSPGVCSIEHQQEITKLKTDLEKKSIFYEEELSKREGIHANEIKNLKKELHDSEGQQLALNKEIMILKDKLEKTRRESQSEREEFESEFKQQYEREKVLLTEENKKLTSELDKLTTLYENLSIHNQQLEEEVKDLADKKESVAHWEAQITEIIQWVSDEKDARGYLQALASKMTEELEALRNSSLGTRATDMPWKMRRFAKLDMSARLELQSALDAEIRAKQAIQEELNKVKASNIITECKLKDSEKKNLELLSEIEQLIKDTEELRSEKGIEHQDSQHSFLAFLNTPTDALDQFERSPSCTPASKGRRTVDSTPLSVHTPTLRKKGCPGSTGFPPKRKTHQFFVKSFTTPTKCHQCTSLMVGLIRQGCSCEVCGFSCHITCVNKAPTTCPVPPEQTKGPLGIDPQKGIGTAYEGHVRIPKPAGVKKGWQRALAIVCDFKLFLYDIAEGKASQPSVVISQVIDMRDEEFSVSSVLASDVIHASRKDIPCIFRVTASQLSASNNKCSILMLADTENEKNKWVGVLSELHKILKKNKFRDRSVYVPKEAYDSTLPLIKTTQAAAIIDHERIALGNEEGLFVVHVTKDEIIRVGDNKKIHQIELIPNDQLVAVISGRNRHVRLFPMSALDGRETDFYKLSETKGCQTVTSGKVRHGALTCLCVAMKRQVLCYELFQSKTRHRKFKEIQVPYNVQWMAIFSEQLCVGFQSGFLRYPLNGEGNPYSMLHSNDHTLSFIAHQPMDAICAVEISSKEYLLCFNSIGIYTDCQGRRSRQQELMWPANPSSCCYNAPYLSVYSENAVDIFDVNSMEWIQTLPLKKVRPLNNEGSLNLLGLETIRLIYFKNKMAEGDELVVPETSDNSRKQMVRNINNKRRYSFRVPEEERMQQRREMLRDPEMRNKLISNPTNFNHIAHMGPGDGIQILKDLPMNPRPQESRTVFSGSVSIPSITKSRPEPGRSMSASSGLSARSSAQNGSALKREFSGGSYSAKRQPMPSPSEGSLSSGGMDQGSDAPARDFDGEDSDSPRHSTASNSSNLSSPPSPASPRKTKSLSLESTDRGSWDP

STK24 (human) = STK24 (human) (UniProt Q9Y6E0)
Chain of STK24 (human) (Q9Y6E0 whole entry, looked up): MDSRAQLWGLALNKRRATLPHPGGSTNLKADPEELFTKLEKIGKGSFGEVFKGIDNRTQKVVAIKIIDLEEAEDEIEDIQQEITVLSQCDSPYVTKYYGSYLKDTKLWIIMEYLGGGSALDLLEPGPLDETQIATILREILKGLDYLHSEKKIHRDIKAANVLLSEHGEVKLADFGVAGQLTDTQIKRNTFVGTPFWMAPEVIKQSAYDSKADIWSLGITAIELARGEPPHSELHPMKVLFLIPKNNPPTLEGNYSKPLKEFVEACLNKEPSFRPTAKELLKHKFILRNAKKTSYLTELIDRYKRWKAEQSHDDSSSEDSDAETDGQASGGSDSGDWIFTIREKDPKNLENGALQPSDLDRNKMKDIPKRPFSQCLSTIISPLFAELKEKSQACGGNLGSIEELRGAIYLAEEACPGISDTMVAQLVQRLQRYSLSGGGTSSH

EPHA5 (human) = EPHA5 (human) (UniProt P54756)
PRKD2 (human) = PRKD2 (human) (UniProt Q9BZL6)
RIPK2 (human) = RIPK2 (human) (UniProt O43353)
SRC (human) = SRC (human) (UniProt P12931)
CSNK1A1 (human) = CSNK1A1 (human) (UniProt P48729)
CDK9 CCNT1 (human) = CDK9 CCNT1 (human) (UniProt P50750+O60563)
MAP4K2 (human) = MAP4K2 (human) (UniProt Q12851)
CAMKK2 (human) = CAMKK2 (human) (UniProt Q96RR4)
ZAP70 (human) = ZAP70 (human) (UniProt P43403)
MAP3K3 (human) = MAP3K3 (human) (UniProt Q99759)

O=C1c2ccccc2-c2nc3nnnn3nc21
residual activity (MAPK14 (human)): 88.6% | residual activity (BTK (human)): 90.6% | residual activity (TGFBR1 (human)): 107% | residual activity (AKT1 (human)): 79.7% | residual activity (ACVR1B (human)): 113% | residual activity (CSNK2A1 (human)): 101% | residual activity (MARK4 (human)): 88.1% | residual activity (PRKACA (human)): 76.6% | residual activity (RAF1 (human)): 76.1% | residual activity (MARK3 (human)): 78.1% | residual activity (EPHB2 (human)): 86.1% | residual activity (FGFR3 (human)): 26.7% | residual activity (PTK2B (human)): 52.1% | residual activity (CSNK1G3 (human)): 80.3% | residual activity (SLK (human)): 92.4% | residual activity (TSSK2 (human)): 75% | residual activity (GSK3A (human)): 88.7% | residual activity [1]: 77.2% | residual activity (PAK6 (human)): 108% | residual activity (AXL (human)): 10.3% | residual activity (ROCK2 (human)): 81.7% | residual activity (NEK4 (human)): 96.1% | residual activity (SYK (human)): 94.8% | residual activity [2]: 101% | residual activity (MAPK12 (human)): 92.5% | residual activity (TEC (human)): 2.44% | residual activity (MYLK (human)): 94.1% | residual activity (PLK2 (human)): 37.3% | residual activity (STK17A (human)): 83.8% | residual activity (AURKA (human)): 71.4% | residual activity (CDC42BPA (human)): 91.6% | residual activity (STK24 (human)): 101% | residual activity (EPHA5 (human)): 81.5% | residual activity (PRKD2 (human)): 91.7% | residual activity (RIPK2 (human)): 101% | residual activity (SRC (human)): 80.4% | residual activity (CSNK1A1 (human)): 85.8% | residual activity (CDK9 CCNT1 (human)): 97% | residual activity (MAP4K2 (human)): 79.4% | residual activity (CAMKK2 (human)): 76.9% | residual activity (ZAP70 (human)): 68.2% | residual activity (MAP3K3 (human)): 134%

COc1ccc(Cl)cc1NC(=O)Nc1cc(C)nc2ccccc12
residual activity (MAPK14 (human)): 98.5% | residual activity (BTK (human)): 102% | residual activity (TGFBR1 (human)): 99.1% | residual activity (AKT1 (human)): 95.8% | residual activity (ACVR1B (human)): 97.4% | residual activity (CSNK2A1 (human)): 97.9% | residual activity (MARK4 (human)): 79.7% | residual activity (PRKACA (human)): 101% | residual activity (RAF1 (human)): 94.8% | residual activity (MARK3 (human)): 126% | residual activity (EPHB2 (human)): 93.2% | residual activity (FGFR3 (human)): 96.3% | residual activity (PTK2B (human)): 88.9% | residual activity (CSNK1G3 (human)): 95.7% | residual activity (SLK (human)): 98.8% | residual activity (TSSK2 (human)): 94% | residual activity (GSK3A (human)): 124% | residual activity [1]: 99.7% | residual activity (PAK6 (human)): 96.5% | residual activity (AXL (human)): 94% | residual activity (ROCK2 (human)): 96.7% | residual activity (NEK4 (human)): 92% | residual activity (SYK (human)): 88.2% | residual activity [2]: 99.3% | residual activity (MAPK12 (human)): 101% | residual activity (TEC (human)): 110% | residual activity (MYLK (human)): 95.7% | residual activity (PLK2 (human)): 102% | residual activity (STK17A (human)): 98.1% | residual activity (AURKA (human)): 93.4% | residual activity (CDC42BPA (human)): 98.8% | residual activity (STK24 (human)): 81.6% | residual activity (EPHA5 (human)): 123% | residual activity (PRKD2 (human)): 99.8% | residual activity (RIPK2 (human)): 82.7% | residual activity (SRC (human)): 99% | residual activity (CSNK1A1 (human)): 101% | residual activity (CDK9 CCNT1 (human)): 98.2% | residual activity (MAP4K2 (human)): 114% | residual activity (CAMKK2 (human)): 93.2% | residual activity (ZAP70 (human)): 94.9% | residual activity (MAP3K3 (human)): 111%
